# Measurements as given in ChEMBL document CHEMBL3507680, “University of Dundee, Gates Library screen for HepG2 cell viability”.
# Assay: Human HepG2 cell viability assay in 384 well format
# Assay type: toxicity, cell-based
# Parameters: dose 125 nL, time 70.5 hour; concentration not given beside the values
# Conditions: HepG2 cells, read-out: Inhibition
row,SMILES,cytotoxicity at 70.5 h [%]
1,CS(=O)(=O)Nc1cccc(C(=O)Nc2ccc3c(c2)C(=O)NC3)c1,-6.35
2,CC(=O)NCc1ccc(C(=O)Nc2ccc3c(c2)C(=O)NC3)cc1,-2.55
3,O=C1C(n2nnc(-c3ccsc3)n2)CCN1CC(F)(F)F (stereo not given),-11.5
4,CCn1cc(S(=O)(=O)N2CCCC2c2ccc(C)o2)cn1 (stereo not given),2.79
5,CC(c1ccc(-n2cncn2)cc1)N(C)Cc1ccccn1 (stereo not given),-7.98
6,COCCCn1ccc(NCc2ccc(NC(C)=O)cc2)n1,-6.7
7,CC(=O)Nc1ccc(CNc2ccn(Cc3ccccc3)n2)cc1,-3.05
8,CN(Cc1cccc(C#N)c1)C(=O)C1CC(c2cccc(F)c2)=NO1 (stereo not given),-6.75
9,CC(OCC1CC1)C(=O)Nc1ncccc1I (stereo not given),-6.4
10,Cc1cc(C)n(-c2ccc(C(=O)NCC(c3cccs3)N(C)C)cc2)n1 (stereo not given),-4.5
11,CCCN(CCC)C(=O)CN(C)Cc1cnc(C)s1,3.46
12,Cc1nc(C)c(C(=O)N2CCN(CCOc3ccccc3C)CC2)o1,-8.43
13,CCCC(=O)N1CCCN(C(=O)c2oc(C)nc2C)CC1,-4.74
14,Cc1nc(CN(CCS(C)(=O)=O)C(C)C)no1,-5.83
15,Cc1cc(C(=O)NC2(c3ccc(Br)cc3)CC2)n(C)n1,6.63
16,CC(=O)c1cc(C(=O)NC2(c3ccccc3)CCC2)n(C)c1,-6.28
17,Cc1cc(C)cc(OCCC(=O)NC2CC(=O)N(C)C2)c1 (stereo not given),-0.646
18,Cc1ncc(COc2ccc(N(C)S(C)(=O)=O)cc2)s1,3.82
19,CCC(CC)CS(=O)(=O)NC(=O)C1CCCC1,26.6
20,Cc1nc(C)c(COc2ccc(N(C)S(C)(=O)=O)cc2)s1,2.74
21,NC(=O)c1ccc(CNC2CCCSC2)cc1 (stereo not given),-1.72
22,CS(=O)(=O)c1cccc(S(=O)(=O)NC(=O)CC2CCCCC2)c1,-4.36
23,CC(=O)Nc1cc(CN(C)C)ccc1C,-6.9

row,SMILES,cytotoxicity at 70.5 h [%]
1,CS(=O)(=O)c1cccc(S(=O)(=O)NC(=O)CC2CCCC2)c1,-3.3
2,O=C(Nc1ccccc1)c1ccc(NCc2ccncc2)nn1,-5.4
3,CN(c1ccc(OCc2cnc(Cl)s2)cc1)S(C)(=O)=O,5.74
4,CS(=O)(=O)c1cccc(S(=O)(=O)NC(=O)CCC2CCCCC2)c1,-7.19
5,CC1(CCNC(=O)NCc2ccsc2)OCCO1,-6.29
6,CCC(C)CS(=O)(=O)NC(=O)C1CCC1 (stereo not given),21.3
7,FC(F)(F)c1cccc(C2(CNCc3cc[nH]c3)CCOCC2)c1,-3.76
8,CCC(CC)CS(=O)(=O)NC(=O)C1CCC1,-4.87
9,CC(=O)c1cccc(S(=O)(=O)N2CCC(c3n[nH]c(C)n3)CC2)c1,2.75
10,OC1(CN2CCC(Cc3ccccc3)CC2)CCC1,-4.49
11,COc1cccc(S(=O)(=O)NC(=O)CC2CCCC2)c1,-3.66
12,Cc1cc(C)n(C2CN(CCc3ccccn3)C2)n1,-11.1
13,CCN(C(=O)CCOC)C(c1ccc(Cl)cc1)c1ccccn1 (stereo not given),-6.55
14,O=C(COc1ccccc1NCc1ccoc1)N1CCOCC1,-18.1
15,CCCn1nnnc1COc1ccc(C(=O)OC)cc1OC,-16.9
16,Cc1nn(C)c2ncc(CN3CCN(c4ncccn4)CC3)cc12,-21.9
17,CCC(C)NS(=O)(=O)c1ccc(C(=O)NC2(C#N)CCC2)cc1 (stereo not given),39.3
18,c1ccc(CCN2CC(n3cccn3)C2)nc1,-15.6
19,CC(C)C(C(=O)N1CCN(c2ccncc2)CC1)n1cncn1 (stereo not given),-7.42
20,CN(C(=O)c1cccc(C(=O)NCC(F)(F)F)c1)c1ccccc1,10.6
21,Fc1ccc(CN2CCCC(Cn3cncn3)C2)c2ncccc12 (stereo not given),-5.13
22,CC(C)(C)c1ccc(C2(C(=O)NCCS(N)(=O)=O)CC2)cc1,-9.31
23,Cc1cc(CNC(=O)NC(C)c2ccc(N3CCOCC3)cc2)no1 (stereo not given),-5.55

row,SMILES,cytotoxicity at 70.5 h [%]
1,Cc1ccc(C(C)NC(=O)Cc2c(C)nc3c(c2C)c(=O)[nH]n3C)o1 (stereo not given),-4.59
2,Cc1n[nH]cc1CNc1ccc2c(c1)N(C(=O)OC(C)(C)C)CCC2,-5.44
3,c1cnnc(N2CCCC(NCc3nc(C4CC4)no3)C2)c1 (stereo not given),-1.23
4,CN(Cc1cccc(F)c1)C(=O)CN1CCCCC1Cn1cncn1 (stereo not given),-9.08
5,CCN(Cc1nc(C(C)C)no1)Cc1cccs1,-10.8
6,CN(Cc1ccc(C#N)cc1)Cc1noc(C(C)(C)C)n1,-10.4
7,CCCS(=O)(=O)NCc1cccnc1OCC,-6.74
8,CCc1nc(C2CCCN2Cc2nc(C3CC3)no2)no1 (stereo not given),-5.95
9,O=C(Cc1ccccc1F)N1CCN(C(=O)c2cccc(F)c2)CC1,38
10,COc1ccc(CS(=O)(=O)CC(=O)NCc2ccccc2F)cc1F,-11.2
11,O=C(COc1cccc2c1CCC2=O)NCc1ccccc1F,-2.34
12,Cc1cc(NS(=O)(=O)c2ccccc2F)ccc1-n1cccc1C(=O)O,-1.31
13,O=C(c1ccco1)N1CCCC1C1CCN(Cc2ccccc2)CC1 (stereo not given),-5.08
14,O=C(CN1CCC(C(=O)c2cc(F)ccc2F)CC1)NC1CCCC1,24.6
15,CCCC(C)C(=O)NCc1cn2cc(Br)ccc2n1 (stereo not given),-7.73
16,COc1cccc(CNC(=O)C(c2cccc(F)c2)N2CCOCC2)c1 (stereo not given),10.7
17,Cc1ccc(CN(C)C(=O)CN2CC(n3cccn3)C2)o1,23.5
18,Cc1nc(NC(=O)CNC(=O)c2c(F)cccc2Cl)n[nH]1,-6.51
19,CN(C)c1cc(C(=O)NCCc2n[nH]c(=O)[nH]2)ccn1,-5.07
20,CNC(=O)Nc1cc(-c2ccc(Br)cc2)nn1CCO,-0.486
21,Cn1cccc1CNC(=O)N(CCO)C1CCCc2ccccc21 (stereo not given),7.35
22,O=C(Nc1nc2c(s1)CCC2)c1cccnc1N1CCOCC1,-0.827
23,COc1cc(C(=O)N(Cc2ccco2)C2CC2)cc2c1OCCO2,-0.578

row,SMILES,cytotoxicity at 70.5 h [%]
1,O=C(NCC(O)c1ccc(F)c(F)c1)c1cccnc1O (stereo not given),-3.92
2,O=C(NCCCN1CCOCC1)c1cc(-c2ccco2)[nH]n1,-11.6
3,Cc1csc(CNC(=O)NC2CCN(c3ncccn3)CC2)n1,-11.3
4,O=C(Nc1nncs1)NC1CCOc2ccccc21 (stereo not given),3.46
5,O=C(Nc1nncs1)NC1CCc2ccccc21 (stereo not given),-8.87
6,Cc1cc(-c2nnn(CCC(N)=O)n2)ccc1F,-9.65
7,O=C(NC1CC1)c1cc(NC(=O)N2CCCC(O)C2)ccc1Cl (stereo not given),-7.86
8,Cc1nn(C(C)C)c(C)c1NC(=O)c1ccccc1,-0.962
9,O=C(NCC(O)c1ccc(F)c(F)c1)c1cccnc1OCC(F)(F)F (stereo not given),-8.69
10,O=C(CCNC(=O)c1ccccc1N1CCOCC1)NC1CCCC1,-1.96
11,O=C(CN(Cc1ccccc1)CC1CCOCC1)Nc1nccs1,-0.217
12,CC1Cc2ccccc2N1Cc1occc1C(=O)OCC(N)=O (stereo not given),2.01
13,O=C(CN(Cc1ccccc1)CC1CCOCC1)NC(=O)NC1CC1,11.8
14,Cc1ccoc1-c1nnc(CNCC2CCCN2c2cccnn2)o1 (stereo not given),-4.49
15,COc1cc(C)sc1C(=O)N1CCC(Nc2cccnc2)CC1,-5.15
16,CC(C)c1ccc(-c2nnn(CCNS(C)(=O)=O)n2)cc1,3.94
17,Cc1noc(C)c1CNC(=O)N1CCC(C(O)c2ccccc2)CC1 (stereo not given),-6
18,CC(=O)c1c(F)cccc1N1CCC(Cc2cccnc2)CC1,9.22
19,CC(C)Cc1noc(CN2CCN(C(=O)c3cccc(F)c3)CC2)n1,-3.6
20,CC(=O)c1c(F)cccc1N1CCC(CS(N)(=O)=O)CC1,-10.5
21,CN(Cc1nnc(C2CC2)n1C)C1CCN(Cc2ccccc2F)C1 (stereo not given),-2.35
22,CN(C(=O)Cc1ccc2c(c1)OCCO2)C1CCCC1,19.8
23,CN(CCC#N)C(=O)CCOc1cccc(F)c1,13

row,SMILES,cytotoxicity at 70.5 h [%]
1,O=C(NC1CCCN(c2ncccn2)C1)c1ccoc1 (stereo not given),-1.17
2,Cc1ccc(CN2CCC3(CC(C(=O)NC4CCC4)=NO3)C2)o1 (stereo not given),-14.5
3,O=C(NCCN1CCOCC1)C1=NOC2(CCN(Cc3nccs3)C2)C1 (stereo not given),-17.4
4,O=C(NC1CCC1)C1=NOC2(CCN(Cc3ccccc3)C2)C1 (stereo not given),-10.6
5,COCC(=O)N1CC[C@@H](N2CCOCC2)[C@@H]1Cc1cccnc1,-12.2
6,Cc1noc(C)c1C(=O)N1C[C@@H]2C[C@@H](c3ccncn3)O[C@@H]2C1,-3.05
7,Cc1oncc1C(=O)N1CC[C@H]2C[C@H](c3ccncn3)O[C@@H]2C1,7.58
8,O=C(c1c2c(N3CCCC3)ncnc2n2ccccc12)N1CCCC1,-11
9,CC(=O)N1CCC2(CC1)CCN(C(=O)c1cccc(C(F)(F)F)c1)C2,-13.6
10,CC(=O)N1CCC2(CCN(C(=O)c3ccc(Cl)c(C(F)(F)F)c3)C2)C1 (stereo not given),-11
11,Cc1ncoc1C(=O)N1CCn2c(COc3cccnc3)cnc2C1C (stereo not given),17.8
12,O=C(NCC1Cn2nnc(-c3ccsc3)c2CO1)c1ccc[nH]1 (stereo not given),1.74
13,NC(=O)c1ccc(CNC2CC2)cc1,16
14,FC(F)(F)c1cccc(-c2c[nH]c(C3CCCN3)n2)c1 (stereo not given),1.03
15,O=C(c1cccs1)N1CC[C@@H](N2CCOCC2)[C@@H]1Cc1ccccc1,-15.7
16,O=C1COC2(COCCN(Cc3ccsc3)C2)CN1c1ccoc1 (stereo not given),32.5
17,O=C1CC2(CCN(Cc3ccco3)C2)CN1c1ccc2c(c1)OCO2 (stereo not given),11.6
18,CN(C)S(=O)(=O)N1CC[C@]2(C[C@@H](Oc3ncccc3F)CO2)C1,13.4
19,O=C(NCc1ccco1)[C@H]1CC[C@@H]2[C@@H](CCN2c2ncccn2)O1,12.4
20,Cc1ccc(N2CC[C@H]3O[C@H](C(=O)NCc4ccco4)CC[C@H]32)nn1,-18.3
21,Cc1ccc(CN2C[C@@H]3[C@@H](C2)OCC(=O)N3Cc2ccncc2)s1,10.5
22,O=C1CO[C@@H]2CN(Cc3nccs3)C[C@H]2N1Cc1ccncc1,-11.4
23,CN(Cc1ccncc1)C1COC2(CCN(Cc3ccsc3)CC2)C1 (stereo not given),-15.1
